Assay results as given in ChEMBL document CHEMBL3600303, “The N-Terminal T-T Motif of a Third-Generation HIV-1 Fusion Inhibitor Is Not Required for Binding Affinity and Antiviral Activity” (J Med Chem, 2015).
pIC50: −log10 of the molar value.

Columns and labels:
[1] = target: Envelope glycoprotein gp160 (Human immunodeficiency virus type 1 group M subtype B (isolate HXB2)(HIV-1)) (UniProt P04578); assay: Binding affinity to HIV-1 HXB2 gp41 N-terminal heptad repeat assessed as thermostability of compound at 10 uM after 30 mins by CD spectroscopic analysis; conditions: Human immunodeficiency virus 1
[2] = tested on: Human immunodeficiency virus 1; assay: Antiviral activity against wild type HIV1 NL4-3 infected in human TZM-bl cells assessed as inhibition of viral replication after 2 days by luciferase reporter gene assay; format: functional, organism-based; conditions: Human immunodeficiency virus 1, NL4-3, TZM-bl, 48 h
[3] = tested on: Human immunodeficiency virus 1; assay: Antiviral activity against HIV1 NL4-3 pseudovirus infected in human TZM-bl cells assessed as inhibition of viral entry into cells after 48 hrs by single-cycle infection assay; format: functional, organism-based; conditions: Human immunodeficiency virus 1, NL4-3, TZM-bl
[4] = target: Envelope glycoprotein gp160 (Human immunodeficiency virus type 1 group M subtype B (isolate HXB2)(HIV-1)) (UniProt P04578); assay: Binding affinity to HIV-1 HXB2 gp41 N-terminal heptad repeat assessed as thermostability of compound after 30 mins by CD spectroscopic analysis; conditions: Human immunodeficiency virus 1

| Substance | Tm [1] [°C] | pIC50 [2] | pIC50 [3] | Tm [4] [°C] |
| --- | --- | --- | --- | --- |
| H-TTWEEWDKKIEEYTKKIEELI-OH | 66.2 | 7.76 | 7.72 |  |
| H-MTWEAWDRAIAEYAARIEALIR-OH |  |  | 7.06 | 68.2 |
| H-MTWEEWDKKIEEYTKKIEELI-OH | 76.2 | 8.50 | 8.37 |  |
| H-TTWEEWDKKIEEYTKKIEELIKKS-OH | 66.3 | 7.58 | 7.33 |  |
| H-MTWEEWDKKIEEYTKKIEELIKKS-OH | 78.2 | 9.05 | 8.89 |  |
